Measured values as given in ChEMBL document CHEMBL3797053, “2-Alkoxy-3-(sulfonylarylaminomethylene)-chroman-4-ones as potent and selective inhibitors of ectonucleotidases” (Eur J Med Chem, 2016).
Active and inactive are the calls of the source. The calls are words filed in the database; no cut-off is given here.

Experiments:
[1] = biological target: T1, 5'-nucleotidase (Rattus norvegicus, UniProt P21588); assay: Inhibition of rat Ecto-5'-nucleotidase transfected in COS7 cells preincubated for 10 mins followed by AMP addition measured after 10 mins; format: cell-based, COS-7
T1 sequence (P21588 whole entry): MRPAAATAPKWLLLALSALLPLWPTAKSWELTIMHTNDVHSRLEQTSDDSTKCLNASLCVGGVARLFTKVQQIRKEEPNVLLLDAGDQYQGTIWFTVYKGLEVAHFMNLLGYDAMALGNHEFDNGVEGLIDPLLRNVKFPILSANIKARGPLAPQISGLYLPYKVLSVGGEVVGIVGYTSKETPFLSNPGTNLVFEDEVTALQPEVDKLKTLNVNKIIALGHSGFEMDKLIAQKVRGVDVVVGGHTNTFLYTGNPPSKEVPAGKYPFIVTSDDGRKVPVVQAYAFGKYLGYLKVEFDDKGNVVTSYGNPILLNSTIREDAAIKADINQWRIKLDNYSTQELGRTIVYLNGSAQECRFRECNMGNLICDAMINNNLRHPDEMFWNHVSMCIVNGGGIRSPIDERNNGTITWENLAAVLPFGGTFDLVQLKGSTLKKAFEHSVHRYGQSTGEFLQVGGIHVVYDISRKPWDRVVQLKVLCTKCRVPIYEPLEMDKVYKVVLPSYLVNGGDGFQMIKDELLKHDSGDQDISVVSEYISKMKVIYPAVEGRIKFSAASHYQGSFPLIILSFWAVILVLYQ

[2] = biological target: T2, 5'-nucleotidase (Rattus norvegicus) (UniProt P21588); details: COS-7, 0.5 to 2 uM
T2 sequence (whole entry): T1 sequence (P21588 whole entry)
Description: Uncompetitive inhibition of rat Ecto-5'-nucleotidase transfected in COS7 cells at 0.5 to 2 uM preincubated for 10 mins followed by AMP addition measured after 10 mins by double-reciprocal plot analysis

[3] = biological target: T3, 5'-nucleotidase (Homo sapiens, UniProt P21589); details: COS-7, 0.5 to 2 uM
T3 sequence (P21589 whole entry): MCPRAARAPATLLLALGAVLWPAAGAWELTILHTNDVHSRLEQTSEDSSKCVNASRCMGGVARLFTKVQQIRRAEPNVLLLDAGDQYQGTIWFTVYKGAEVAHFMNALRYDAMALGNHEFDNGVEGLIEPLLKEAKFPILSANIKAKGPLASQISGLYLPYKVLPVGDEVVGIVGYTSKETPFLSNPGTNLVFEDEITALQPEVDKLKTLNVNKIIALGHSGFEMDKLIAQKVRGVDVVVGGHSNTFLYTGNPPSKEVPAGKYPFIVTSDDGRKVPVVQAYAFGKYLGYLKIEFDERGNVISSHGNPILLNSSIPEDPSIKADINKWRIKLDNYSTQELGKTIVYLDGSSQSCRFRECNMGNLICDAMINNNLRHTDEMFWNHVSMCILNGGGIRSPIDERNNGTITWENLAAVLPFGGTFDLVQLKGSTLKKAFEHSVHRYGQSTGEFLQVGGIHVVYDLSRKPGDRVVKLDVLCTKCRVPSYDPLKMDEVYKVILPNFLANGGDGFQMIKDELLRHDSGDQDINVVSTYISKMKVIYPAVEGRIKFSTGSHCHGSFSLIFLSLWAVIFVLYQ

[4] = biological target: Intestinal-type alkaline phosphatase (Bos taurus, UniProt P19111); assay: Inhibition of calf intestinal alkaline phosphatase preincubated for 3 to 5 mins followed by CDP-star substrate addition measured after 15 mins by luminescence assay
Intestinal-type alkaline phosphatase, sequence (P19111 whole entry): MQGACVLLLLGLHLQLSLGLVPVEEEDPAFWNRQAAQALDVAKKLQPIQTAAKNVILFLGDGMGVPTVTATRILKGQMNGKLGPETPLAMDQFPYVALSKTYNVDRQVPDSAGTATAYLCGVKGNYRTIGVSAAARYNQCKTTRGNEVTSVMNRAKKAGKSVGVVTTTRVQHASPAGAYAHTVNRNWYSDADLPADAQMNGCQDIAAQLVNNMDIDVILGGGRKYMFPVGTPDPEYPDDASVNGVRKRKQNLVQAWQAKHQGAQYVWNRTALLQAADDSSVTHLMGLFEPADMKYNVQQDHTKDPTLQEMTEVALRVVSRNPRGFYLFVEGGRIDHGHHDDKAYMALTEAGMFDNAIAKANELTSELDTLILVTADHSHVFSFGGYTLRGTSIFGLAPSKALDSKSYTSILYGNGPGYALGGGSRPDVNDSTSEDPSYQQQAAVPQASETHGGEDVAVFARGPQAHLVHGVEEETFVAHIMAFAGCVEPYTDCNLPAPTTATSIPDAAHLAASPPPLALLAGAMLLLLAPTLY

[5] = biological target: T2, 5'-nucleotidase (Rattus norvegicus); assay: Inhibition of rat Ecto-5'-nucleotidase transfected in COS7 cells at 1 mM preincubated for 10 mins followed by AMP addition measured after 10 mins; format: cell-based; details: COS-7
[6] = biological target: T3, 5'-nucleotidase; assay: Inhibition of human Ecto-5'-nucleotidase transfected in COS7 cells preincubated for 10 mins followed by AMP addition measured after 10 mins; format: cell-based, COS-7
[7] = biological target: T4, Alkaline phosphatase, tissue-nonspecific isozyme (Bos taurus, UniProt P09487); assay: Inhibition of bovine tissue non-specific alkaline phosphatase preincubated for 3 to 5 mins followed by CDP-star substrate addition measured after 15 mins by luminescence assay
T4 sequence (P09487 whole entry): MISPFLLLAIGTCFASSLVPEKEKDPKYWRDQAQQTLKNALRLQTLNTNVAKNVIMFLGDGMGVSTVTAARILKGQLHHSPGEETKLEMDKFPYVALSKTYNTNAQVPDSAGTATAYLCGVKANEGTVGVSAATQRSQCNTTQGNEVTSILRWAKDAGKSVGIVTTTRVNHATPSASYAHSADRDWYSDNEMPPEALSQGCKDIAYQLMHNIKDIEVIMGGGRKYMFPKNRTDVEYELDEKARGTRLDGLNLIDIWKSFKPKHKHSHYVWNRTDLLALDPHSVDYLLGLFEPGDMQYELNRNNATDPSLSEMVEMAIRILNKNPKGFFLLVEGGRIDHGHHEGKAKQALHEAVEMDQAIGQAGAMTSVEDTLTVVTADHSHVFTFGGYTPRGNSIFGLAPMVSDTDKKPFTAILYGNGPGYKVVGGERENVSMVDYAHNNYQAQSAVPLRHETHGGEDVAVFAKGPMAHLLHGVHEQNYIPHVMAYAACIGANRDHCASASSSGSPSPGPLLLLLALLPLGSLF

Structure (SMILES) | IC50 [1] [µM] | Ki [1] [µM] | inhibition [2] | inhibition [3] | IC50 [4] [µM] | Ki [4] [µM] | inhibition [5] [%] | IC50 [6] [µM] | Ki [6] [µM] | IC50 [7] [µM] | Ki [7] [µM]
CCOC1Oc2c(Br)cc(Br)cc2C(=O)/C1=C\Nc1cccc(S(N)(=O)=O)c1 (racemic) | 0.583 | 0.027 | Active |  |  |  |  |  |  |  | 
CC(C)OC1Oc2ccccc2C(=O)/C1=C\Nc1cccc(S(N)(=O)=O)c1 (racemic) |  |  |  | Active | 17.9 | 7.66 | 25.7 | 0.287 | 0.014 | 111 | 47.5
